# Legend:
# [1] = Acute toxicity in male BALB/c mouse assessed effect on lung at 20 to 30 mg/kg, ip measured after 7 days by H and E staining based analysis; format: organism-based; conditions: in vivo, 168 h, dose 20-30 mg/kg, time 7 day
# [2] = Acute toxicity in male BALB/c mouse assessed appearance of augmented alveolar interstitial space at 20 to 30 mg/kg, ip measured after 7 days by H and E staining based analysis; format: organism-based; conditions: in vivo, 168 h, dose 20-30 mg/kg, time 7 day
# [3] = Stability in mouse serum assessed as half life measured after 1 hr by HPLC analysis; format: ADME, cell-free
# [4] = Acute toxicity in male BALB/c mouse assessed infiltration of inflammatory cells at 20 to 30 mg/kg, ip measured after 7 days by H and E staining based analysis; format: organism-based; conditions: in vivo, 168 h, dose 20-30 mg/kg, time 7 day
# [5] = Acute toxicity in male BALB/c mouse assessed infiltration of inflammatory cells in kidney at 20 to 30 mg/kg, ip measured after 7 days by H and E staining based analysis; format: organism-based; conditions: in vivo, 168 h, dose 20-30 mg/kg, time 7 day
# [6] = Acute toxicity in male BALB/c mouse assessed effect on liver at 20 to 30 mg/kg, ip measured after 7 days by H and E staining based analysis; format: organism-based; conditions: in vivo, 168 h, dose 20-30 mg/kg, time 7 day
# [7] = Acute toxicity in male BALB/c mouse assessed lethal dose administered as ip dose measured for 7 days; format: organism-based; conditions: in vivo, time 7 day
# [8] = Acute toxicity in male BALB/c mouse assessed appearance of lung congestion at 20 to 30 mg/kg, ip measured after 7 days by H and E staining based analysis; format: organism-based; conditions: in vivo, 168 h, dose 20-30 mg/kg, time 7 day
# [9] = Acute toxicity in male BALB/c mouse assessed infiltration of inflammatory cells in spleen at 20 to 30 mg/kg, ip measured after 7 days by H and E staining based analysis; format: organism-based; conditions: in vivo, 168 h, dose 20-30 mg/kg, time 7 day
# [10] = Stability in mouse serum assessed as retention time measured after 1 hr by RP-HPLC analysis; format: ADME, cell-free
# [11] = Acute toxicity in male BALB/c mouse assessed appearance of aberrant alveolar morphology at 20 to 30 mg/kg, ip measured after 7 days by H and E staining based analysis; format: organism-based; conditions: in vivo, 168 h, dose 20-30 mg/kg, time 7 day
# Klebsiella pneumoniae = assay: Antibacterial activity against Klebsiella pneumoniae ATCC 700603 assessed as reduction in bacterial growth incubated for 18 to 24 hrs by broth microdilution method; format: functional; conditions: time 18-24 hrs
# Staphylococcus aureus [12] = assay: Antibacterial activity against methicillin-resistant Staphylococcus aureus ATCC 33591 assessed as reduction in bacterial growth incubated for 18 to 24 hrs by broth microdilution method; format: functional; conditions: time 18-24 hrs
# Escherichia coli [13] = assay: Antibacterial activity against Escherichia coli 850 assessed as reduction in bacterial growth incubated for 18 to 24 hrs by broth microdilution method; format: functional; conditions: time 18-24 hrs
# Acinetobacter baumannii [14] = assay: Antibacterial activity against Acinetobacter baumannii ATCC 19606 assessed as reduction in bacterial growth incubated for 18 to 24 hrs by broth microdilution method; format: functional; conditions: time 18-24 hrs
# Escherichia coli [15] = assay: Drug resistance, ratio of MIC for Escherichia coli 25922 after 15 passages exposure to MIC for Escherichia coli 25922 during first exposure; format: functional
# [16] = tested on: Staphylococcus epidermidis; assay: Antibacterial activity against Staphylococcus epidermidis ATCC 12228 assessed as reduction in bacterial growth incubated for 18 to 24 hrs by broth microdilution method; format: functional; conditions: time 18-24 hrs
# Acinetobacter baumannii [17] = assay: Antibacterial activity against Acinetobacter baumannii 5444 assessed as reduction in bacterial growth incubated for 18 to 24 hrs by broth microdilution method; format: functional; conditions: time 18-24 hrs
# Pseudomonas aeruginosa [18] = assay: Antibacterial activity against Pseudomonas aeruginosa 6434N assessed as reduction in bacterial growth incubated for 18 to 24 hrs by broth microdilution method; format: functional; conditions: time 18-24 hrs
# Acinetobacter baumannii [19] = assay: Antibacterial activity against Acinetobacter baumannii 92359 assessed as reduction in bacterial growth incubated for 18 to 24 hrs by broth microdilution method; format: functional; conditions: time 18-24 hrs
# Pseudomonas aeruginosa [20] = assay: Antibacterial activity against Pseudomonas aeruginosa ATCC 27853 assessed as reduction in bacterial growth incubated for 18 to 24 hrs by broth microdilution method; format: functional; conditions: time 18-24 hrs
# Escherichia coli [21] = assay: Antibacterial activity against Escherichia coli 780 assessed as reduction in bacterial growth incubated for 18 to 24 hrs by broth microdilution method; format: functional; conditions: time 18-24 hrs
# Staphylococcus aureus [22] = assay: Drug resistance, ratio of MIC for Staphylococcus aureus 25923 after 4 passages exposure to MIC for Staphylococcus aureus 25923 during first exposure; format: functional
# Staphylococcus aureus [23] = assay: Drug resistance, ratio of MIC for Staphylococcus aureus 25923 after 15 passages exposure to MIC for Staphylococcus aureus 25923 during first exposure; format: functional
# Staphylococcus aureus [24] = assay: Antibacterial activity against methicillin-resistant Staphylococcus aureus 75 assessed as reduction in bacterial growth incubated for 18 to 24 hrs by broth microdilution method; format: functional; conditions: time 18-24 hrs
# Enterococcus faecalis = assay: Antibacterial activity against Enterococcus faecalis ATCC 29212 assessed as reduction in bacterial growth incubated for 18 to 24 hrs by broth microdilution method; format: functional; conditions: time 18-24 hrs
# Staphylococcus aureus [25] = assay: Antibacterial activity against Staphylococcus aureus 794 assessed as reduction in bacterial growth incubated for 18 to 24 hrs by broth microdilution method; format: functional; conditions: time 18-24 hrs
# Escherichia coli [26] = assay: Antibacterial activity against Escherichia coli ATCC 25922 assessed as reduction in bacterial growth incubated for 18 to 24 hrs by broth microdilution method; format: functional; conditions: time 18-24 hrs
# Pseudomonas aeruginosa [27] = assay: Antibacterial activity against Pseudomonas aeruginosa 124 assessed as reduction in bacterial growth incubated for 18 to 24 hrs by broth microdilution method; format: functional; conditions: time 18-24 hrs
# Staphylococcus aureus [28] = assay: Antibacterial activity against Staphylococcus aureus ATCC 25923 assessed as reduction in bacterial growth incubated for 18 to 24 hrs by broth microdilution method; format: functional; conditions: time 18-24 hrs
# Staphylococcus aureus [29] = assay: Antibacterial activity against Staphylococcus aureus 125 assessed as reduction in bacterial growth incubated for 18 to 24 hrs by broth microdilution method; format: functional; conditions: time 18-24 hrs
# Bacillus subtilis = assay: Antibacterial activity against Bacillus subtilis ATCC 23857 assessed as reduction in bacterial growth incubated for 18 to 24 hrs by broth microdilution method; format: functional; conditions: time 18-24 hrs
# Escherichia coli [30] = assay: Drug resistance, ratio of MIC for Escherichia coli 25922 after 7 passages exposure to MIC for Escherichia coli 25922 during first exposure; format: functional
# Staphylococcus aureus [31] = assay: Antibacterial activity against Staphylococcus aureus 113 assessed as reduction in bacterial growth incubated for 18 to 24 hrs by broth microdilution method; format: functional; conditions: time 18-24 hrs
structure (smiles),measurement,setting,value
CC(C)CCCCC(=O)N[C@@H](CCN)C(=O)N[C@H](C(=O)N[C@@H](CCN)C(=O)N[C@H]1CCNC(=O)[C@H]([C@@H](C)O)NC(=O)[C@H](CCN)NC(=O)[C@H](CCN)NC(=O)[C@H](CC(C)C)NC(=O)[C@@H](Cc2ccccc2)NC(=O)[C@H](CCN)NC1=O)[C@@H](C)O.CC[C@H](C)CCCCC(=O)N[C@@H](CCN)C(=O)N[C@H](C(=O)N[C@@H](CCN)C(=O)N[C@H]1CCNC(=O)[C@H]([C@@H](C)O)NC(=O)[C@H](CCN)NC(=O)[C@H](CCN)NC(=O)[C@H](CC(C)C)NC(=O)[C@@H](Cc2ccccc2)NC(=O)[C@H](CCN)NC1=O)[C@@H](C)O,Activity,[1],Toxic
same,Activity,[2],Toxic
same,half-life,[3],631 min
same,Activity,[4],Toxic
same,Activity,[5],Non-toxic
same,Activity,[6],Toxic
same,LD50 at 168 h,[7],23.6 mg/kg
same,Activity,[8],Toxic
same,Activity,[9],Non-toxic
same,Retention_time,[10],13.545 min
same,Activity,[11],Toxic
CO[C@H]1/C=C/O[C@@]2(C)Oc3c(C)c(O)c4c(O)c(c(/C=N/N5CCN(C)CC5)c(O)c4c3C2=O)NC(=O)/C(C)=C\C=C\[C@H](C)[C@H](O)[C@@H](C)[C@@H](O)[C@@H](C)[C@H](OC(C)=O)[C@@H]1C [RIFAMPIN],MIC,Klebsiella pneumoniae,16 µM
same,MIC,Staphylococcus aureus [12],128 µM
same,MIC,Escherichia coli [13],16 µM
same,MIC,Acinetobacter baumannii [14],1 µM
same,fold change (FC),Escherichia coli [15],64
same,MIC,[16],1 µM
same,MIC,Acinetobacter baumannii [17],16 µM
same,MIC,Pseudomonas aeruginosa [18],16 µM
same,MIC,Acinetobacter baumannii [19],16 µM
same,MIC,Pseudomonas aeruginosa [20],32 µM
same,MIC,Escherichia coli [21],16 µM
same,fold change (FC),Staphylococcus aureus [22],8
same,fold change (FC),Staphylococcus aureus [23],512
same,MIC,Staphylococcus aureus [24],128 µM
same,MIC,Enterococcus faecalis,1 µM
same,MIC,Staphylococcus aureus [25],4 µM
same,MIC,Escherichia coli [26],8 µM
same,MIC,Pseudomonas aeruginosa [27],128 µM
same,MIC,Staphylococcus aureus [28],1 µM
same,MIC,Staphylococcus aureus [29],1 µM
same,MIC,Bacillus subtilis,1 µM
same,fold change (FC),Escherichia coli [30],8
same,MIC,Staphylococcus aureus [31],1 µM
